Earlier results as cited in patent US20200172966A1 (YAMAGUCHI UNIVERSITY, priority 2015, published 2020).

Conditions: patients identified as non-high-risk based on polymorphisms of the UGT1A gene; cited from earlier work

For `CCc1c2c(nc3ccc(OC(=O)N4CCC(N5CCCCC5)CC4)cc13)-c1cc3c(c(=O)n1C2)COC(=O)[C@]3(O)CC` [irinotecan, 1,4′-Bipiperidine-1′-carboxylic acid (S)-4,11-diethyl-3,4,12,14-tetrahydro-4-hydroxy-3,14-dioxo-1H-pyrano[3′,4′:6,7]indolizino[1,2-b]quinolin-9-yl ester], the “patients with a side effect” value is listed as 43%.
